Data set [1] deals with Phosphatidylinositol 4,5-bisphosphate 3-kinase catalytic subunit alpha isoform (Homo sapiens, UniProt P42336). The experiment in a line: Inhibition of GST-tagged human recombinant PI3K-p110alpha extracted from baculovirus-infected Sf9 insect cells incubated for 1 hr by microbeta counter analysis.
The nature of data set [2]: Clearance in rat liver microsomes. It counts as ADME, Microsome. (In general: Liver microsomes are a subcellular fraction often used to study metabolism.)
The target of the next data set is CYP450 (Homo sapiens, UniProt P04798+P05177+P05181+P08684+P10632+P10635+P11509+P11712+P13584+P20813+P20815+P20853+P24462+P24903+P33260+P33261+P51589+P78329+P98187+Q02928+Q08477+Q16678+Q16696+Q5TCH4+Q6VVX0+Q7Z449+Q8TAV3+Q96SQ9+Q9HB55). The data set is described as follows: Inhibition of CYP450 (unknown origin). It counts as ADME, protein assay.
In another data set the test system is MCF7. The experiment in a line: cells. Particulars: Homo sapiens, MCF7, 96 h.
Data set [3] can be described thus: Oral bioavailability in mouse at 1 mg/kg. Type of data set: ADME, organism-based. Particulars: in vivo.
Data set [4] can be described thus: Oral bioavailability in rat at 1 mg/kg. It counts as ADME, organism-based. Particulars: in vivo.
Data set [5] can be described thus: Cmax in mouse at 1 mg/kg, iv. The note with it: in vivo. It counts as ADME, organism-based.
Data set [6] can be described thus: Cmax in rat at 3.4 mg/kg, po. Type of data set: ADME, organism-based. Particulars: in vivo.
A short description of data set [7]: Oral bioavailability in mouse. Type of data set: ADME, organism-based. The note with it: in vivo.
The nature of data set [8]: Oral bioavailability in Dog. It counts as ADME, organism-based, Canis lupus familiaris. The note with it: in vivo.
A short description of data set [9]: Clearance in mouse at 1 mg/kg, iv. It counts as ADME, organism-based. Particulars: in vivo.
Data set [10] is described as follows: Volume of distribution at steady state in mouse at 1 mg/kg, iv. Type of data set: ADME, organism-based. The note with it: in vivo, read-out: Vdss.
Data set [11] in a line: Cmax in mouse plasma at 5 mg/kg, po. Type of data set: ADME, organism-based.
Data set [12] can be described thus: Cmax in mouse plasma at 50 mg/kg, po. It counts as ADME, organism-based.
Data set [13] can be described thus: AUC in mouse plasma at 5 mg/kg, po. The note with it: in vivo. It counts as ADME, organism-based.
The nature of data set [14]: AUC in mouse plasma at 50 mg/kg, po. It counts as ADME, organism-based. The note with it: in vivo.
Data set [15] in a line: Oral bioavailability in mouse plasma at 5 mg/kg by LC-MS/MS analysis. Type of data set: ADME, organism-based.
Data set [16] is described as follows: Oral bioavailability in mouse plasma at 50 mg/kg by LC-MS/MS analysis. Type of data set: ADME, organism-based.
The nature of data set [17]: Plasma protein binding in mouse. It counts as ADME, cell-free. Particulars: read-out: PPB (converted).
Data set [18] can be described thus: Half life in monkey. It counts as ADME, Macaca mulatta. Particulars: rhesus monkey, in vivo.
Data set [19] is described as follows: Metabolic stability in mouse liver microsomes assessed as half life. Type of data set: ADME, Microsome.
The next data set deals with Cytochrome P450 3A4 (Homo sapiens, UniProt P08684). The experiment in a line: Inhibition of CYP3A4 (unknown origin). Type of data set: ADME.
Data set [20] is described as follows: Cmax in SCID mouse at 3 mg/kg, iv measured upto 24 hrs by LC/MS-MS analysis. The note with it: in vivo. It counts as ADME, organism-based.
Data set [21] can be described thus: AUC (0 to t) in SCID mouse at 3 mg/kg, iv. Type of data set: ADME, organism-based. Particulars: in vivo.
Data set [22] can be described thus: Volume of distribution at steady state in mouse at 3 mg/kg, iv. Type of data set: ADME, organism-based. Particulars: in vivo.
The nature of data set [23]: Oral bioavailability in mouse at 3 mg/kg by LC-MS/MS analysis. The note with it: in vivo. Type of data set: ADME, organism-based.
The nature of data set [24]: Oral bioavailability in rat at 3 mg/kg by LC-MS/MS analysis. Particulars: in vivo. Type of data set: ADME, organism-based.
Data set [25] is described as follows: Oral bioavailability in Beagle dog at 3 mg/kg by LC-MS/MS analysis. Type of data set: ADME, organism-based, Canis lupus familiaris. The note with it: in vivo.
A short description of data set [26]: Half life in SCID mouse at 3 mg/kg, po. Particulars: in vivo. Type of data set: ADME, organism-based.
Data set [27] in a line: Oral bioavailability in human. It counts as ADME, organism-based. Particulars: in vivo.
The nature of data set [28]: Intrinsic clearance in rat liver microsomes. Type of data set: ADME, Microsome. The note with it: read-out: CLH (converted).

Results on 10 compounds are retold here after ChEMBL document CHEMBL6071150, “From lab to clinic: The discovery and optimization journey of PI3K inhibitors” (Eur J Med Chem, 2024).

pIC50: −log10 of the molar value.

A word on the pIC50: it is the IC50 on a negative log10 scale, so that one unit is a factor of ten. By bioavailability is commonly meant dose-corrected exposure relative to a reference, in per cent. By Cmax is commonly meant the maximum level reached in the sampled fluid or tissue. A word on the clearance: it is the rate of elimination divided by the concentration. As usually defined, the AUC is the area under the concentration-time curve, a measure of exposure. The half-life is the time in which the quantity being followed falls by half. For orientation: Vdss means a proportionality between amount in the body and measured concentration, not a real space.

Phosphatidylinositol 4,5-bisphosphate 3-kinase catalytic subunit alpha isoform, sequence (P42336 whole entry, canonical isoform): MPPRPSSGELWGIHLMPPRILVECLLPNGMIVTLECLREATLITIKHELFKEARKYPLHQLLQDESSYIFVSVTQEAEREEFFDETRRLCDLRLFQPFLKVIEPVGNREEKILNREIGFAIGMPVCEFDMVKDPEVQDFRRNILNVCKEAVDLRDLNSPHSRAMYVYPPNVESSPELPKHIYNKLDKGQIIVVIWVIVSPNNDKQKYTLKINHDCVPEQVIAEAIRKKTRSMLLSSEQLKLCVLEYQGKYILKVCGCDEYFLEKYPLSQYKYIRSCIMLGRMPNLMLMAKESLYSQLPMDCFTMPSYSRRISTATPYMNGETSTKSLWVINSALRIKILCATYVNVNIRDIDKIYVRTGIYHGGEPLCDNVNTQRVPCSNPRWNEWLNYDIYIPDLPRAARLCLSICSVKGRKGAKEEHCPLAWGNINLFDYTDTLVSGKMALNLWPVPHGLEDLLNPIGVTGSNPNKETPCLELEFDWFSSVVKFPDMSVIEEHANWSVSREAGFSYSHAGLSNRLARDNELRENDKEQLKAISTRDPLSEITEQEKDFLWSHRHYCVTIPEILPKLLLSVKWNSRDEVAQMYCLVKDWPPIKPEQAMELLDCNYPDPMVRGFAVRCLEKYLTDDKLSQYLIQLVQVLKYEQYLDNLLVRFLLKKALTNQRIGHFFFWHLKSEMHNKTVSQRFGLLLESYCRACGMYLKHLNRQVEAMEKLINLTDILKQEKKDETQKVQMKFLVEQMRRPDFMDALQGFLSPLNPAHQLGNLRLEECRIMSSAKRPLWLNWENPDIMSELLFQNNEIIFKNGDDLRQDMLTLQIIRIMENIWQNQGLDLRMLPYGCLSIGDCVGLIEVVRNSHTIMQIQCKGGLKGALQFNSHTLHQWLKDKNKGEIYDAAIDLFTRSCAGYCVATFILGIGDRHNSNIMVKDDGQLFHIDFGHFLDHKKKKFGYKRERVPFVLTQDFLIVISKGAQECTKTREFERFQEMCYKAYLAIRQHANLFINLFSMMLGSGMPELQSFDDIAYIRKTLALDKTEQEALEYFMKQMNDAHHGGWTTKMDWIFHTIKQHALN
Cytochrome P450 3A4, sequence (P08684 whole entry): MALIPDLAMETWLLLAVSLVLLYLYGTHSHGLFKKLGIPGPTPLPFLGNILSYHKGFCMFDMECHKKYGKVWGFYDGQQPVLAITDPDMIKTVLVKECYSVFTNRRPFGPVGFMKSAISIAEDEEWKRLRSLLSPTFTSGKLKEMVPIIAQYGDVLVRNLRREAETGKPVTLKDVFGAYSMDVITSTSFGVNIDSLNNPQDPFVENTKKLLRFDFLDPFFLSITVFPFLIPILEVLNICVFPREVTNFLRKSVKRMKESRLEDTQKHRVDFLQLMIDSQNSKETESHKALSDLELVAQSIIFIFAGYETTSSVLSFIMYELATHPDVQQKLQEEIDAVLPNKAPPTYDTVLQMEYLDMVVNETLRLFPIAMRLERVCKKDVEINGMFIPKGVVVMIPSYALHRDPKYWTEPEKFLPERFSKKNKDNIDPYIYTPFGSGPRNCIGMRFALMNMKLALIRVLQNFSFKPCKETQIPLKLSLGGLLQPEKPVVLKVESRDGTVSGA

As for `Cc1nc(NC(=O)N2CCC[C@H]2C(N)=O)sc1-c1ccnc(Nc2ccccc2C(C)(C)C)n1`, the pIC50 was 8.12 in data set [1] and less than 5.00 against CYP450. The CLH in data set [2] stood at 62 µL/min/µg.
In the case of `Cc1c(CN2CCN(C(=O)[C@@H](C)O)CC2)sc2c(N3CCOCC3)nc(-c3cnc(N)nc3)nc12`, in the data set with MCF7, the pIC50 was 6.45.
As for `CC1(C)OCCn2c1nc1c(N3CCOCC3)nc(-c3cnc(N)nc3)nc12` [PAXALISIB], the bioavailability in [3] was found to be 75%; in data set [4], 77%.
In data set [2], `Cc1nc(NC(=O)N2CCC[C@H]2C(N)=O)sc1-c1ccnc(C(C)(C)C(F)(F)F)c1` [ALPELISIB] displayed a CLH of 29 µL/min/µg. Moreover, the Cmax came to 520 nM in data set [5] and 190 nM in data set [6].
Consider `COc1ncc(-c2ccc3nccc(-c4ccnnc4)c3c2)cc1NS(=O)(=O)c1ccc(F)cc1F` [OMIPALISIB], for which the bioavailability in data set [7] was 100%; in data set [8], 80%.
In turn, `Cc1c(CN2CCN(C(=O)[C@H](C)O)CC2)sc2c(N3CCOCC3)nc(-c3cnc(N)nc3)nc12` [APITOLISIB] gave a pIC50 in the data set on MCF7 of 6.59.
With `C[C@H](NC(=O)c1c(N)ccc2cccnc12)c1cc2cccc(Cl)c2c(=O)n1-c1ccccc1`, the clearance in data set [9] amounted to 9.2 mL/min/kg. Moreover, the Vd in data set [10] came to 1.7 L/kg. For the same compound, the peak concentration (Cmax) stood at 2000 nM in data set [11] and 24000 nM in [12]. Further, the exposure (AUC) was determined as 10 µM·h in [13] and 121 µM·h in data set [14]. In addition, the results for the bioavailability in data set [15] and in data set [16] were 56% and 66%, respectively. The fraction unbound in data set [17] is 0.29.
As for `C[C@H](NC(=O)c1c(N)nn2cccnc12)c1cc2cccc(C#Cc3cnn(C)c3)c2c(=O)n1-c1ccccc1` [EGANELISIB], the half-life in [18] is 4.3 h; in data set [19], greater than 6 h. This compound also showed a negative logarithm of the IC50 (pIC50) against Cytochrome P450 3A4 of less than 4.70.
In turn, `C[C@H]1Cc2ccccc2N1C(=O)Cc1nc(N2CCOCC2)cc(=O)[nH]1` [SAR-260301] yielded a Cmax in [20] of 1870 ng/mL. The compound also returned an AUCt in [21] of 600 h/ng/mL. This compound yielded a volume of distribution (Vdss) in data set [22] of 1 L/kg. Further, the results for the bioavailability in data set [23], in data set [24] and in data set [25] were 30%, 70% and 67%, respectively. The compound also gave a half-life in data set [26] of 1.4 h.
For `C[C@H](Nc1ncnc2[nH]cnc12)c1cc2ccc(F)cc2nc1-c1ccccn1` [AMG-319], the bioavailability in [27] came out at 54%. Besides, the CLint scaled in data set [28] is 5.67 mL/min/kg.
